Measurements: patent US11433057B2, “Method for improving or enhancing cognition” (VANDA PHARMACEUTICALS INC., priority 2016, dated 2022)

Legend:
Format in all cases: in vivo, human
[1] = test system: patients with findings consistent with mild AD or amnestic MCI; assay: CANTAB Pattern Recognition Memory (PRM), 4-week placebo-controlled study; conditions: 15 mg daily oral, study day 28, PD analysis set N=54
Method: (§1) The following example illustrates the methods of the invention, in which a 4-week, parallel-group, randomized, double-blind, placebo-controlled, adaptive proof of concept study of AQW051 at up to three dose levels for the treatment of patients with findings consistent with mild Alzheimer's disease (AD) or Mild Cognitive Impairment (amnestic MCI) was conducted in two stages.
(§2) To explore effects of AQW051 on other cognitive functions not assessed by the primary measures (CANTAB tests Pattern Recognition Memory (PRM), Choice Reaction Time (CRT), Graded Naming Test-Revised (GNT).
(§3) The investigational drug AQW51 was provided as either 0.5 mg, 5 mg, or 25 mg capsules. In stage I only 5 mg capsules were used. All groups received 15 mg of AQW051 daily for 4 weeks.
(§4) On Day 1, 8, 15, 22 and 28, the study drug was administered by study personnel and was taken orally with 240 ml of water after light breakfast. On all other study treatment days, patients self-administered the study medication in the morning after light breakfast.
(§5) The different CANTAB readouts were analyzed separately by rank analyses of covariance, including “treatment” and “stratum” (MCI, AD) as fixed effects and the corresponding baseline value as covariate. The comparison of interest was the contrast between active treatment and placebo; tests were performed to the one-sided 10% level without multiplicity-adjustment. Point and interval estimates were produced by the baseline-adjusted stratified Hodges-Lehmann method. In addition, sensitivity analyses were performed using standard analyses of covariance, to complement the aforementioned nonparametric methods. The items “errors at the 6 pattern stage” and “total trials adjusted” of the PAL task at day 28 played a key role at the interim analysis. At the end of stage 1, the conditional power of the study to reach an overall significant result in both these key endpoints at the final analysis was estimated by bootstrap methods. The different scores from the ADAS-Cog, QoL-AD, the DAD and the MMSE were analyzed using standard analyses of covariance. Safety and tolerability variables measures were analyzed by means of descriptive statistics.

[2] = test system: patients with findings consistent with mild AD or amnestic MCI; assay: CANTAB Graded Naming Test-Revised (GNT), 4-week placebo-controlled study; conditions: 15 mg daily oral; study day 28; PD analysis set N=54; p=0.8191
Method: as §1, §2, §3
On Day 1, 8, 15, 22 and 28, the study drug was administered by study personnel and was taken orally with 240 ml of water after light breakfast. […]
(§6) The different CANTAB readouts were analyzed separately by rank analyses of covariance, including “treatment” and “stratum” (MCI, AD) as fixed effects and the corresponding baseline value as covariate. […] The different scores from the ADAS-Cog, QoL-AD, the DAD and the MMSE were analyzed using standard analyses of covariance. Safety and tolerability variables measures were analyzed by means of descriptive statistics.

[3] = test system: patients with findings consistent with mild AD or amnestic MCI; assay: CANTAB Paired Associates Learning (PAL), 4-week placebo-controlled study; conditions: 15 mg daily oral, study day 1
Method: as §1
(§7) To assess AQW051 as a cognitive enhancer, as measured by selected tests [Paired Associates Learning (PAL), Spatial Working Memory (SWM), Rapid Visual Information Processing (RVP)] from the Cambridge Neuropsychological Test Automated Battery (CANTAB) computerized cognitive test battery, in patients with findings consistent with mild AD or amnestic MCI.
as §3, §4, §5

[4] = test system: patients with findings consistent with mild AD or amnestic MCI; assay: Adverse events, safety analysis set, 4-week placebo-controlled study; conditions: 15 mg daily oral, 4 weeks
Method: as §1
To explore the safety and tolerability of AQW051 in patients with findings consistent with mild AD or amnestic MCI.
as §3, §4, §5
Under one treatment, a subject with multiple occurrences of an adverse event is counted only once in the AE category. N=number of subject studied; n=number of subjects with at least 1 AE in the category. Only adverse events occurring at or after first drug intake are included.

[5] = test system: patients with findings consistent with mild AD or amnestic MCI; assay: CANTAB Choice Reaction Time (CRT), 4-week placebo-controlled study; conditions: 15 mg daily oral, study day 28
Method: as §1, §2, §3, §4, §5

[6] = test system: patients with findings consistent with mild AD or amnestic MCI; assay: CANTAB Spatial Working Memory (SWM), 4-week placebo-controlled study; conditions: 15 mg daily oral, study day 28
Method: as §1, §7, §3, §4, §5

[7] = test system: patients with findings consistent with mild AD or amnestic MCI; assay: CANTAB Rapid Visual Information Processing (RVP), 4-week placebo-controlled study; conditions: 15 mg daily oral, study day 1
Method: as §1, §7
The investigational drug AQW51 was provided as either 0.5 mg, 5 mg, or 25 mg capsules. In stage I only 5 mg capsules were used. All groups received 15 mg of AQW051 daily for 4 weeks. […]
as §6

## Cc1ccc(-c2ccc(O[C@H]3CN4CCC3CC4)cn2)cc1 [AQW051, (R)-3-(6-p-tolyl-pyridin-3-yloxy)-1-aza-bicyclo[2.2.2]octane]
[1]; p=0.4244
  PRM Percent correct delayed, Difference, AQW051 15 mg vs. placebo: 0
[1]; p=0.7864
  PRM Mean correct latency delayed, Difference, AQW051 15 mg vs. placebo: 150 ms
[1]; p=0.8090
  PRM Percent correct immediate, Difference, AQW051 15 mg vs. placebo: −4
[1]; p=0.8328
  PRM Mean correct latency immediate, Difference, AQW051 15 mg vs. placebo: 198 ms
[2]
  GNT Total correct, Difference, AQW051 15 mg vs. placebo: −1.5
[3]; MCI patient only N=38, p=0.0239
  PAL of total errors (2 shapes adj), Difference AQW051 15 mg vs. Placebo: 0
[3]; MCI patient only N=38, p=0.0877
  PAL total trials (adj), Difference AQW051 15 mg vs. Placebo: −1.5
[3]; all patients N=54, p=0.0142
  PAL total errors (2 shapes adj), Difference AQW051 15 mg vs. Placebo: 0
[3]; all patients N=54, p=0.0840
  PAL total errors (6 shapes adj), Difference AQW051 15 mg vs. Placebo: −2
[3]; all patients N=54, p=0.0846
  PAL total trials (adj), Difference AQW051 15 mg vs. Placebo: −1
[4]; AD N = 7
  Flatulence related to study drug, (%): 14.3%
  Patients with AE(s) related to study drug, (%): 14.3%
[4]; MCI N = 20
  Constipation related to study drug, (%): 5.0%
  Dysgraphia related to study drug, (%): 5.0%
  Headache related to study drug, (%): 10.0%
  Increased tendency to bruise related to study drug, (%): 5.0%
  Muscle spasms related to study drug, (%): 5.0%
  Pain in extremity related to study drug, (%): 5.0%
  Patients with AE(s) related to study drug, (%): 15.0%
  Pruritus related to study drug, (%): 5.0%
[4]; N = 27
  Bronchitis AE, (%) of subjects: (3.7) %
  Bronchitis AE, n of subjects: 1
  Chalazion AE, (%) of subjects: (3.7) %
  Chalazion AE, n of subjects: 1
  Constipation AE, (%) of subjects: (3.7) %
  Constipation AE, n of subjects: 1
  Dysgraphia AE, (%) of subjects: (3.7) %
  Dysgraphia AE, n of subjects: 1
  Ear and Labyrinth disorders AEs, (%) of subjects: (3.7) %
  Ear and Labyrinth disorders AEs, n of subjects: 1
  Epistaxis AE, (%) of subjects: (3.7) %
  Epistaxis AE, n of subjects: 1
  Eye disorders AEs, (%) of subjects: (3.7) %
  Eye disorders AEs, n of subjects: 1
  Flatulence AE, (%) of subjects: (3.7) %
  Flatulence AE, n of subjects: 1
  Gastrointestinal disorders AEs, (%) of subjects: (7.4) %
  Gastrointestinal disorders AEs, n of subjects: 2
  Headache AE, (%) of subjects: (7.4) %
  Headache AE, n of subjects: 2
  Hepatic function abnormal AE, (%) of subjects: (3.7) %
  Hepatic function abnormal AE, n of subjects: 1
  Hepatobiliary disorders AEs, (%) of subjects: (3.7) %
  Hepatobiliary disorders AEs, n of subjects: 1
  Increased tendency to bruise AE, (%) of subjects: (3.7) %
  Increased tendency to bruise AE, n of subjects: 1
  Infections and infestations AEs, (%) of subjects: (11.1) %
  Infections and infestations AEs, n of subjects: 3
  Laryngitis AE, (%) of subjects: (3.7) %
  Laryngitis AE, n of subjects: 1
  Muscle spasms AE, (%) of subjects: (3.7) %
  Muscle spasms AE, n of subjects: 1
  Musculoskeletal and connective tissue disorders AEs, (%) of subjects: (7.4) %
  Musculoskeletal and connective tissue disorders AEs, n of subjects: 2
  Nasopharyngitis AE, (%) of subjects: (3.7) %
  Nasopharyngitis AE, n of subjects: 1
  Nervous system disorders AEs, (%) of subjects: (7.4) %
  Nervous system disorders AEs, n of subjects: 2
  Pain in extremity AE, (%) of subjects: (7.4) %
  Pain in extremity AE, n of subjects: 2
  Patients with AEs, (%) of subjects: (40.7) %
  Patients with AEs, n of subjects: 11
  Pruritus AE, (%) of subjects: (3.7) %
  Pruritus AE, n of subjects: 1
  Respiratory, thoracic and mediastinal disorders AEs, (%) of subjects: (3.7) %
  Respiratory, thoracic and mediastinal disorders AEs, n of subjects: 1
  Skin and subcutaneous disorders AEs, (%) of subjects: (7.4) %
  Skin and subcutaneous disorders AEs, n of subjects: 2
  Skin lesion AE, (%) of subjects: (3.7) %
  Skin lesion AE, n of subjects: 1
  Tympanic membrane perforation AE, (%) of subjects: (3.7) %
  Tympanic membrane perforation AE, n of subjects: 1
[4]; Total N = 27
  Constipation related to study drug, (%): 3.7%
  Dysgraphia related to study drug, (%): 3.7%
  Flatulence related to study drug, (%): 3.7%
  Headache related to study drug, (%): 7.4%
  Increased tendency to bruise related to study drug, (%): 3.7%
  Muscle spasms related to study drug, (%): 3.7%
  Pain in extremity related to study drug, (%): 3.7%
  Patients with AE(s) related to study drug, (%): 14.8%
  Pruritus related to study drug, (%): 3.7%
[5]; MCI patient only N=38, p=0.0918
  CRT Percent correct trials, Difference AQW051 15 mg vs. Placebo: 0.5
[5]; MCI patient only N=38, p=0.0966
  CRT Median latency, Difference, AQW051 15 mg vs. placebo: −23
[5]; PD analysis set N=54, p=0.3273
  CRT Median latency, Difference, AQW051 15 mg vs. placebo: −9.5
[5]; all patients N=54, p=0.0632
  CRT Percent correct trials, Difference AQW051 15 mg vs. Placebo: 0.5
[6]; MCI patient only N=38, p=0.0290
  SWM Between errors (6 boxes), Difference AQW051 15 mg vs. Placebo: −2.5
[6]; MCI patient only N=38, p=0.0845
  SWM Between errors, Difference AQW051 15 mg vs. Placebo: −5
[6]; all patients N=54, p=0.0430
  SWM Between errors (6 boxes), Difference AQW051 15 mg vs. Placebo: −2
[6]; all patients N=54, p=0.0701
  SWM Between errors, Difference AQW051 15 mg vs. Placebo: −3.5
[6]; all patients N=54, p=0.0866
  SWM Between errors (4 boxes), Difference AQW051 15 mg vs. Placebo: −0.5
[7]; MCI patient only N=38, p=0.0419
  RVP Mean latency, Difference AQW051 15 mg vs. Placebo: −22
[7]; all patients N=54, p=0.0292
  RVP Mean latency, Difference AQW051 15 mg vs. Placebo: −21.5
